# Values quoted from earlier work in US20210220455A1, “COMPOSITIONS AND METHODS FOR PERSONALIZED NEOPLASIA VACCINES” (The Broad Institute, Inc., priority 2013, published 2021).
# Tests used:
# [1] = system: ovarian carcinoma patients; conditions: cited from earlier work
# healthy human volunteers = conditions: cited from earlier work
substance,measurement,setting,value
Polyinosinic-Polycytidylic Acid-poly-L-lysine Carboxymethylcellulose [poly-ICLC],generation of NY-ESO-1-specific CD4+ and CD8+ T-cell and antibody responses,[1]; 1.4 mg poly-ICLC and Montanide added to OLP vs OLP alone or OLP and Montanide,markedly enhanced
same,patients showing induction of CD4+ and CD8+ T cell and antibody responses to the peptide,[1]; poly-ICLC with NY-ESO-1 peptide vaccine and Montanide,> 90%
same,differentially expressed genes versus placebo,"healthy human volunteers; 8 volunteers, one single s.c. administration vs 4 placebo subjects",up to 212 genes
same,safety in human volunteer study,"healthy human volunteers; human, in vivo",safe
